# In ChEMBL document CHEMBL1136192, “Cyclin-dependent kinase 4 inhibitors as a treatment for cancer. Part 2: identification and optimisation of substituted 2,4-bis anilino pyrimidines” (Bioorg Med Chem Lett, 2003):
# Target: Cyclin-dependent kinase 2 (Homo sapiens, UniProt P24941)
# Test: Inhibitory concentration against cyclin-dependent kinase 2
row,Compound,IC50
1,Cc1ccc(Cl)c(Nc2ccnc(Nc3ccc(OCC(O)CN(C)C)cc3)n2)c1 (stereo not drawn),5000 nM
2,CN(C)CC(O)COc1ccc(Nc2nccc(Nc3cc(C(F)(F)F)ccc3F)n2)cc1 (stereo not drawn),1000 nM
3,CN(C)CC(O)COc1ccc(Nc2nccc(Nc3cc(Cl)ccc3Cl)n2)cc1 (stereo not drawn),1000 nM
4,CN(C)CC(O)COc1ccc(Nc2nccc(Nc3cccc(Cl)c3)n2)cc1 (stereo not drawn),5000 nM
5,CN(C)CC(O)COc1ccc(Nc2ncc(F)c(Nc3ccccc3)n2)cc1 (stereo not drawn),> 10000 nM
6,C#CCN(c1ccnc(Nc2ccc(OCC(O)CN(C)C)cc2)n1)c1cc(Cl)ccc1Cl (stereo not drawn),2000 nM
7,CN(C)CC(O)COc1ccc(Nc2nccc(N(CCCC(F)(F)F)c3cc(Cl)ccc3Cl)n2)cc1 (stereo not drawn),12000 nM
8,CN(C)CC(O)COc1ccc(Nc2nccc(N(Cc3ccccc3)c3cc(Cl)ccc3Cl)n2)cc1 (stereo not drawn),> 10000 nM
9,CN(C)CC(O)COc1ccc(Nc2nccc(N(CCC#N)c3cc(Cl)ccc3Cl)n2)cc1 (stereo not drawn),3000 nM
10,CN(C)CC(O)COc1ccc(Nc2ncc(Cl)c(Nc3ccccc3)n2)cc1 (stereo not drawn),500 nM
11,COc1ccc(Nc2cc(Nc3ccc(OCC(O)CN(C)C)cc3)ncn2)cc1 (stereo not drawn),> 100000 nM
12,CN(C)CC(O)COc1ccc(Nc2nccc(Nc3ccccc3C#N)n2)cc1 (stereo not drawn),4000 nM
13,Cc1ccc(Nc2cc(Nc3ccc(OCC(O)CN(C)C)cc3)ncn2)cc1 (stereo not drawn),> 100000 nM
14,CN(C)CC(O)COc1ccc(Nc2nccc(Nc3ccccc3Br)n2)cc1 (stereo not drawn),7000 nM
15,Cc1ccc(Cl)c(Nc2cc(Nc3ccc(OCC(O)CN(C)C)cc3)ncn2)c1 (stereo not drawn),22000 nM
16,Cc1cnc(Nc2ccc(OCC(O)CN(C)C)cc2)nc1Nc1ccccc1 (stereo not drawn),8000 nM
17,Cc1ccc(Nc2ccnc(Nc3ccc(OCC(O)CN(C)C)cc3)n2)cc1 (stereo not drawn),26000 nM

# Results, then the compound that gave them:
row,IC50,Compound
1,2000 nM,Cc1ccc(F)c(Nc2ccnc(Nc3ccc(OCC(O)CN(C)C)cc3)n2)c1 (stereo not drawn)
2,> 100000 nM,CN(C)CC(O)COc1ccc(Nc2cc(Nc3ccc(Cl)cc3)ncn2)cc1 (stereo not drawn)
3,6000 nM,CN(C)CC(O)COc1ccc(Nc2nccc(Nc3ccccc3Cl)n2)cc1 (stereo not drawn)
4,200 nM,CN(C)CC(O)COc1ccc(Nc2ncc(Br)c(N(CCCC(F)(F)F)c3ccccc3)n2)cc1 (stereo not drawn)
5,81000 nM,Cc1ccc(F)c(Nc2cc(Nc3ccc(OCC(O)CN(C)C)cc3)ncn2)c1 (stereo not drawn)
6,300 nM,CN(C)CC(O)COc1ccc(Nc2ncc(Br)c(Nc3ccccc3)n2)cc1 (stereo not drawn)
7,34000 nM,CN(C)CC(O)COc1ccc(Nc2nccc(Nc3ccccc3)n2)cc1 (stereo not drawn)
8,700 nM,CN(C)CC(O)COc1ccc(Nc2nccc(N(CC#N)c3cc(Cl)ccc3Cl)n2)cc1 (stereo not drawn)
9,15000 nM,COc1ccccc1Nc1ccnc(Nc2ccc(OCC(O)CN(C)C)cc2)n1 (stereo not drawn)
10,36000 nM,COc1ccc(Nc2ccnc(Nc3ccc(OCC(O)CN(C)C)cc3)n2)cc1 (stereo not drawn)
11,18000 nM,CN(C)CC(O)COc1ccc(Nc2nccc(Nc3ccc(Cl)cc3)n2)cc1 (stereo not drawn)
12,7000 nM,CN(C)CC(O)COc1ccc(Nc2nccc(Nc3ccccc3F)n2)cc1 (stereo not drawn)

# Target: Cyclin-dependent kinase 4 (Homo sapiens, UniProt P11802)
# Test: Inhibitory concentration against cyclin-dependent kinase 4
# Sequence of Cyclin-dependent kinase 4 (P11802 whole entry): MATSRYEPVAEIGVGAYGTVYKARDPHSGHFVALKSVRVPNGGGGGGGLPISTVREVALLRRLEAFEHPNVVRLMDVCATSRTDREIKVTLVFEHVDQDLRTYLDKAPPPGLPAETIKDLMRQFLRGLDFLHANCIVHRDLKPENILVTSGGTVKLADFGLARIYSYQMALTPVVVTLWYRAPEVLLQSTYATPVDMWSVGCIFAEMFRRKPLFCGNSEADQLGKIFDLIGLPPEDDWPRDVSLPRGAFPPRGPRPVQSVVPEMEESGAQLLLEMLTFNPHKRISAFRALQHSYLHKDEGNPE
row,Compound,IC50
1,Cc1ccc(Cl)c(Nc2ccnc(Nc3ccc(OCC(O)CN(C)C)cc3)n2)c1 (stereo not drawn),2000 nM
2,CN(C)CC(O)COc1ccc(Nc2nccc(Nc3cc(C(F)(F)F)ccc3F)n2)cc1 (stereo not drawn),600 nM
3,CN(C)CC(O)COc1ccc(Nc2nccc(Nc3cc(Cl)ccc3Cl)n2)cc1 (stereo not drawn),800 nM
4,CN(C)CC(O)COc1ccc(Nc2nccc(Nc3cccc(Cl)c3)n2)cc1 (stereo not drawn),2000 nM
5,CN(C)CC(O)COc1ccc(Nc2ncc(F)c(Nc3ccccc3)n2)cc1 (stereo not drawn),300 nM
6,C#CCN(c1ccnc(Nc2ccc(OCC(O)CN(C)C)cc2)n1)c1cc(Cl)ccc1Cl (stereo not drawn),200 nM
7,CN(C)CC(O)COc1ccc(Nc2nccc(N(CCCC(F)(F)F)c3cc(Cl)ccc3Cl)n2)cc1 (stereo not drawn),200 nM
8,CN(C)CC(O)COc1ccc(Nc2nccc(N(Cc3ccccc3)c3cc(Cl)ccc3Cl)n2)cc1 (stereo not drawn),1000 nM
9,CN(C)CC(O)COc1ccc(Nc2nccc(N(CCC#N)c3cc(Cl)ccc3Cl)n2)cc1 (stereo not drawn),300 nM
10,CN(C)CC(O)COc1ccc(Nc2ncc(Cl)c(Nc3ccccc3)n2)cc1 (stereo not drawn),100 nM
11,COc1ccc(Nc2cc(Nc3ccc(OCC(O)CN(C)C)cc3)ncn2)cc1 (stereo not drawn),57000 nM
12,CN(C)CC(O)COc1ccc(Nc2nccc(Nc3ccccc3C#N)n2)cc1 (stereo not drawn),2000 nM
13,Cc1ccc(Nc2cc(Nc3ccc(OCC(O)CN(C)C)cc3)ncn2)cc1 (stereo not drawn),25000 nM
14,CN(C)CC(O)COc1ccc(Nc2nccc(Nc3ccccc3Br)n2)cc1 (stereo not drawn),1000 nM
15,Cc1ccc(Cl)c(Nc2cc(Nc3ccc(OCC(O)CN(C)C)cc3)ncn2)c1 (stereo not drawn),2000 nM
16,Cc1cnc(Nc2ccc(OCC(O)CN(C)C)cc2)nc1Nc1ccccc1 (stereo not drawn),800 nM
17,Cc1ccc(Nc2ccnc(Nc3ccc(OCC(O)CN(C)C)cc3)n2)cc1 (stereo not drawn),2000 nM

# More lines, now with the values ahead:
row,IC50,Compound
1,700 nM,Cc1ccc(F)c(Nc2ccnc(Nc3ccc(OCC(O)CN(C)C)cc3)n2)c1 (stereo not drawn)
2,41000 nM,CN(C)CC(O)COc1ccc(Nc2cc(Nc3ccc(Cl)cc3)ncn2)cc1 (stereo not drawn)
3,1000 nM,CN(C)CC(O)COc1ccc(Nc2nccc(Nc3ccccc3Cl)n2)cc1 (stereo not drawn)
4,10 nM,CN(C)CC(O)COc1ccc(Nc2ncc(Br)c(N(CCCC(F)(F)F)c3ccccc3)n2)cc1 (stereo not drawn)
5,4000 nM,Cc1ccc(F)c(Nc2cc(Nc3ccc(OCC(O)CN(C)C)cc3)ncn2)c1 (stereo not drawn)
6,100 nM,CN(C)CC(O)COc1ccc(Nc2ncc(Br)c(Nc3ccccc3)n2)cc1 (stereo not drawn)
7,2000 nM,CN(C)CC(O)COc1ccc(Nc2nccc(Nc3ccccc3)n2)cc1 (stereo not drawn)
8,100 nM,CN(C)CC(O)COc1ccc(Nc2nccc(N(CC#N)c3cc(Cl)ccc3Cl)n2)cc1 (stereo not drawn)
9,19000 nM,COc1ccccc1Nc1ccnc(Nc2ccc(OCC(O)CN(C)C)cc2)n1 (stereo not drawn)
10,2000 nM,COc1ccc(Nc2ccnc(Nc3ccc(OCC(O)CN(C)C)cc3)n2)cc1 (stereo not drawn)
11,1000 nM,CN(C)CC(O)COc1ccc(Nc2nccc(Nc3ccc(Cl)cc3)n2)cc1 (stereo not drawn)
12,1000 nM,CN(C)CC(O)COc1ccc(Nc2nccc(Nc3ccccc3F)n2)cc1 (stereo not drawn)
